These results are taken from ChEMBL document CHEMBL3994622, “Design and synthesis of new RAF kinase-inhibiting antiproliferative quinoline derivatives. Part 2: Diarylurea derivatives” (Eur J Med Chem, 2017).

What all share (type): functional
The test system of assay [1] is RPMI-8226. In words: Growth inhibition of human RPMI8226 cells assessed as cell growth at 0.01 uM incubated for 48 hrs by sulforhodamine B assay relative to control. To be noted: RPMI-8226, 48 h, read-out: Activity.
For assay [2], the system named is SR. Nature of the assay: Growth inhibition of human SR cells assessed as cell growth at 0.01 uM incubated for 48 hrs by sulforhodamine B assay relative to control. Particulars: read-out: Activity. On the technique in general: Sulforhodamine B stains cellular protein and so reports cell mass.
In assay [3] the test system is SK-MEL-2. In words: Growth inhibition of human SK-MEL-2 cells assessed as cell growth at 0.01 uM incubated for 48 hrs by sulforhodamine B assay relative to control. Particulars: SK-MEL-2, 48 h, read-out: Activity.
The subject of assay [4] is MCF7. In words: Growth inhibition of human MCF7 cells assessed as cell growth at 0.01 uM incubated for 48 hrs by sulforhodamine B assay relative to control. Particulars: MCF7, 48 h, read-out: Activity.
Assay [5] has as its system K562. Nature of the assay: Growth inhibition of human K562 cells assessed as cell growth at 0.1 uM incubated for 48 hrs by sulforhodamine B assay relative to control. To be noted: K562, 48 h, read-out: Activity.
In assay [6] the test system is NCI-H226. In words: Growth inhibition of human NCI-H226 cells assessed as cell growth at 0.1 uM incubated for 48 hrs by sulforhodamine B assay relative to control. To be noted: NCI-H226, 48 h, read-out: Activity.
Assay [7] deals with HCC 2998. Nature of the assay: Growth inhibition of human HCC2998 cells assessed as cell growth at 0.1 uM incubated for 48 hrs by sulforhodamine B assay relative to control. To be noted: HCC 2998, 48 h, read-out: Activity.
Assay [8] has as its system Malme-3M. In words: Growth inhibition of human MALME-3M cells assessed as cell growth at 0.1 uM incubated for 48 hrs by sulforhodamine B assay relative to control. To be noted: read-out: Activity.
Assay [9] has as its system SR. In words: Growth inhibition of human SR cells assessed as cell growth at 1 uM incubated for 48 hrs by sulforhodamine B assay relative to control. To be noted: read-out: Activity.
Assay [10] has as its system A498. Nature of the assay: Growth inhibition of human A498 cells assessed as cell growth at 1 uM incubated for 48 hrs by sulforhodamine B assay relative to control. To be noted: A498, 48 h, read-out: Activity.
In assay [11] the test system is SN12C. Nature of the assay: Growth inhibition of human SN12C cells assessed as cell growth at 1 uM incubated for 48 hrs by sulforhodamine B assay relative to control. To be noted: read-out: Activity.
Assay [12] relates to HL-60(TB). Nature of the assay: Growth inhibition of human HL-60(TB) cells assessed as cell growth at 10 uM incubated for 48 hrs by sulforhodamine B assay relative to control. Particulars: HL-60, 48 h, read-out: Activity.
Assay [13] concerns K562. Nature of the assay: Growth inhibition of human K562 cells assessed as cell growth at 10 uM incubated for 48 hrs by sulforhodamine B assay relative to control. To be noted: K562, 48 h, read-out: Activity.
In assay [14] the test system is SK-MEL-5. Nature of the assay: Growth inhibition of human SK-MEL-5 cells assessed as cell growth at 10 uM incubated for 48 hrs by sulforhodamine B assay relative to control. Particulars: SK-MEL-5, 48 h, read-out: Activity.
Assay [15] deals with OVCAR-8. In words: Growth inhibition of human OVCAR8 cells assessed as cell growth at 10 uM incubated for 48 hrs by sulforhodamine B assay relative to control. To be noted: OVCAR-8, 48 h, read-out: Activity.
The test system of assay [16] is TK-10. Nature of the assay: Growth inhibition of human TK10 cells assessed as cell growth at 10 uM incubated for 48 hrs by sulforhodamine B assay relative to control. To be noted: TK-10, 48 h, read-out: Activity.
The test system of assay [17] is MOLT-4. In words: Growth inhibition of human MOLT4 cells assessed as cell growth at 100 uM incubated for 48 hrs by sulforhodamine B assay relative to control. To be noted: MOLT-4, 48 h, read-out: Activity.
The subject of assay [18] is NCI-H322M. Nature of the assay: Growth inhibition of human NCI-H322M cells assessed as cell growth at 100 uM incubated for 48 hrs by sulforhodamine B assay relative to control. Particulars: read-out: Activity.
Assay [19] deals with LOX IMVI. Nature of the assay: Growth inhibition of human LOXIMVI cells assessed as cell growth at 100 uM incubated for 48 hrs by sulforhodamine B assay relative to control. To be noted: read-out: Activity.
Assay [20] relates to OVCAR-3. Nature of the assay: Growth inhibition of human OVCAR3 cells assessed as cell growth at 100 uM incubated for 48 hrs by sulforhodamine B assay relative to control. Particulars: OVCAR-3, 48 h, read-out: Activity.
Assay [21] relates to TK-10. In words: Growth inhibition of human TK10 cells assessed as cell growth at 100 uM incubated for 48 hrs by sulforhodamine B assay relative to control. To be noted: TK-10, 48 h, read-out: Activity.
In assay [22] the test system is CCRF-CEM. In words: Growth inhibition of human CCRF-CEM cells assessed as cell growth at 0.003 uM incubated for 48 hrs by sulforhodamine B assay relative to control. To be noted: read-out: Activity.
For assay [23], the system named is A549. In words: Growth inhibition of human A549/ATCC cells assessed as cell growth at 0.003 uM incubated for 48 hrs by sulforhodamine B assay relative to control. Particulars: A549, 48 h, read-out: Activity.
The subject of assay [24] is SF-539. In words: Growth inhibition of human SF539 cells assessed as cell growth at 0.03 uM incubated for 48 hrs by sulforhodamine B assay relative to control. To be noted: SF-539, 48 h, read-out: Activity.
For assay [25], the system named is SNB-75. In words: Growth inhibition of human SNB75 cells assessed as cell growth at 0.03 uM incubated for 48 hrs by sulforhodamine B assay relative to control. Particulars: SNB-75, 48 h, read-out: Activity.
The test system of assay [26] is Hs-578T. In words: Growth inhibition of human Hs 578T cells assessed as cell growth at 0.03 uM incubated for 48 hrs by sulforhodamine B assay relative to control. Particulars: read-out: Activity.
Assay [27] relates to SW-620. Nature of the assay: Growth inhibition of human SW620 cells assessed as cell growth at 0.3 uM incubated for 48 hrs by sulforhodamine B assay relative to control. To be noted: SW-620, 48 h, read-out: Activity.
Assay [28] concerns PC-3. Nature of the assay: Growth inhibition of human PC3 cells assessed as cell growth at 0.3 uM incubated for 48 hrs by sulforhodamine B assay relative to control. Particulars: PC-3, 48 h, read-out: Activity.
Assay [29] deals with MCF7. Nature of the assay: Growth inhibition of human MCF7 cells assessed as cell growth at 0.3 uM incubated for 48 hrs by sulforhodamine B assay relative to control. To be noted: MCF7, 48 h, read-out: Activity.
Assay [30] relates to NCI-H226. In words: Growth inhibition of human NCI-H226 cells assessed as cell growth at 3 uM incubated for 48 hrs by sulforhodamine B assay relative to control. To be noted: NCI-H226, 48 h, read-out: Activity.
Assay [31] relates to NCI-H522. Nature of the assay: Growth inhibition of human NCI-H522 cells assessed as cell growth at 3 uM incubated for 48 hrs by sulforhodamine B assay relative to control. Particulars: NCI-H522, 48 h, read-out: Activity.
Assay [32] concerns A498. In words: Growth inhibition of human A498 cells assessed as cell growth at 3 uM incubated for 48 hrs by sulforhodamine B assay relative to control. Particulars: A498, 48 h, read-out: Activity.
Assay [33] concerns NCI-H226. Nature of the assay: Growth inhibition of human NCI-H226 cells assessed as cell growth at 30 uM incubated for 48 hrs by sulforhodamine B assay relative to control. Particulars: NCI-H226, 48 h, read-out: Activity.
The test system of assay [34] is HCT-116. Nature of the assay: Growth inhibition of human HCT116 cells assessed as cell growth at 30 uM incubated for 48 hrs by sulforhodamine B assay relative to control. To be noted: HCT-116, 48 h, read-out: Activity.
Assay [35] has as its system MDA-MB-231. In words: Growth inhibition of human MDA-MB-231 cells assessed as cell growth at 30 uM incubated for 48 hrs by sulforhodamine B assay relative to control. To be noted: MDA-MB-231, 48 h, read-out: Activity.

On to `COc1cc2cc(Oc3ccc(NC(=O)Nc4ccc(Cl)c(Cl)c4)cc3)c(C)nc2cc1OC`, for which the growth at 0.01 µM amounted to 100% in [1], 107% in assay [2], 116% in assay [3] and 95% in [4]. Moreover, the growth at 0.1 µM in assay [5] is 107%; in assay [6] it was 107%; in assay [7], 101%; in [8] it was 105%. The growth at 1 µM was determined as 98% in assay [9], 74% in assay [10] and 85% in assay [11]. Also, the growth at 10 µM in [12] was -22%; in assay [13], 15%; in assay [14] it was -9%; in assay [15] it was 13%; in [16] it was -4%. Moreover, the growth at 100 µM in assay [17] is -12%; in [18], -13%; in assay [19], -100%; in [20], -98%; in assay [21] it was -76%.
For `COc1cc2cc(Oc3ccc(NC(=O)Nc4ccc(Cl)c(C(F)(F)F)c4)cc3)c(C)nc2cc1OC`, the figures for the growth at 0.003 µM in assay [22] and in [23] were 111% and 94%, respectively. For the same compound, the growth at 0.03 µM in assay [24] was found to be 100%; in [25], 84%; in assay [26] it was 109%. In addition, the growth at 0.3 µM in assay [27] was 99%; in [28], 83%; in assay [29] it was 97%. The growth at 3 µM is 11% in assay [30], -8% in [31] and 1% in [32]. Further, the growth at 30 µM was -49% in assay [33], -83% in [34] and -74% in [35].
For `COc1cc2cc(Oc3ccc(NC(=O)Nc4cc(C(F)(F)F)cc(C(F)(F)F)c4)cc3)c(C)nc2cc1OC`, the growth at 0.01 µM turned out to be 98% in assay [1], 92% in [2], 106% in [3] and 85% in assay [4]. Moreover, the growth at 0.1 µM is 108% in [5], 101% in assay [6], 107% in assay [7] and 87% in assay [8]. Also, the values for the growth at 1 µM in [9], in assay [10] and in [11] were 69%, 74% and 35%, respectively. Also, the growth at 10 µM in [12] is -41%; in assay [13], -47%; in assay [14] it was -79%; in assay [15] it was -46%; in assay [16] it was -3%. Moreover, the growth at 100 µM in assay [17] was -42%; in assay [18] it was -91%; in assay [19], -90%; in assay [20], -89%; in assay [21], -95%.
As for `Cc1nc2cc(O)c(O)cc2cc1Oc1ccc(NC(=O)Nc2ccc(Cl)c(Cl)c2)cc1`, the growth at 0.003 µM was 97% in [22] and 100% in assay [23]. The values for the growth at 0.03 µM in assay [24], in assay [25] and in assay [26] were 105%, 81% and 85%, respectively. Moreover, the values for the growth at 0.3 µM in assay [27], in assay [28] and in assay [29] were 100%, 97% and 86%, respectively. For the same compound, the growth at 3 µM in assay [30] was determined as 102%; in [31] it was 65%; in assay [32], 79%. Besides, the growth at 30 µM in assay [33] is 9%; in assay [34], -26%; in assay [35], 6%.
